One assay has as its target T1, SIRT1 (Homo sapiens, UniProt Q96EB6).
T1 sequence (Q96EB6 2-747): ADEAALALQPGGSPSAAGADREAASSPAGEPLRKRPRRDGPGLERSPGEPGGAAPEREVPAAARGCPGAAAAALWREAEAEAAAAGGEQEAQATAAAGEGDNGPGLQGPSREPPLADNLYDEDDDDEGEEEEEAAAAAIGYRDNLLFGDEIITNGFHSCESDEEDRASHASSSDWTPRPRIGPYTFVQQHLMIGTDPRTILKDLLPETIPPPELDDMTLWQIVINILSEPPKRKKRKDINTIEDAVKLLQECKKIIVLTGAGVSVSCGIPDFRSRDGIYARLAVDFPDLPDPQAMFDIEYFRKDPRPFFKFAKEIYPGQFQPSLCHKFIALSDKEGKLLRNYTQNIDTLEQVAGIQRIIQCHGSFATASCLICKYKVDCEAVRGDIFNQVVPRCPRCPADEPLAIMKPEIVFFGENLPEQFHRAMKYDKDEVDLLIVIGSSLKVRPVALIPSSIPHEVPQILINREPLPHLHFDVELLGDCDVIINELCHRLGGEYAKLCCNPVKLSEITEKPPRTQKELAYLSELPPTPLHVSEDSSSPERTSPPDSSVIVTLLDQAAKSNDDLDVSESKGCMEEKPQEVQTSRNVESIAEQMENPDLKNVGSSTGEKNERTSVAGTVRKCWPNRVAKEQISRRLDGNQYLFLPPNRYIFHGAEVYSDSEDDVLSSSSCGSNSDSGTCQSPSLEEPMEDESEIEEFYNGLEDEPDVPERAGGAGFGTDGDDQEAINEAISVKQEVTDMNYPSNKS
Description: biochemical. Further details: Sirtuin-TK assay, percent inhibition of human SIRT1 or SIRT2 at 5 and 50 uM. The method, then: (§1) Sirtuin-TK assay was performed to estimate the Sirtuins inhibitory potential of 5a–h (Tables 2 and 3). The results of this test strongly complemented the findings of cancer cell-based assessments. […] Of the 8 compounds evaluated, 3 analogs (5b, 5e and 5h) were more likely to inhibit Sirt2 (>70% inhibition) than Sirt1 (<50% inhibition) at 50 μM. The other compounds were poor inhibitors of both enzymes. […] 4.2.2. Sirtuin inhibitory assay

The target in a further assay is T2, SIRT2 (Homo sapiens, UniProt Q8IXJ6).
T2 sequence (Q8IXJ6 2-389): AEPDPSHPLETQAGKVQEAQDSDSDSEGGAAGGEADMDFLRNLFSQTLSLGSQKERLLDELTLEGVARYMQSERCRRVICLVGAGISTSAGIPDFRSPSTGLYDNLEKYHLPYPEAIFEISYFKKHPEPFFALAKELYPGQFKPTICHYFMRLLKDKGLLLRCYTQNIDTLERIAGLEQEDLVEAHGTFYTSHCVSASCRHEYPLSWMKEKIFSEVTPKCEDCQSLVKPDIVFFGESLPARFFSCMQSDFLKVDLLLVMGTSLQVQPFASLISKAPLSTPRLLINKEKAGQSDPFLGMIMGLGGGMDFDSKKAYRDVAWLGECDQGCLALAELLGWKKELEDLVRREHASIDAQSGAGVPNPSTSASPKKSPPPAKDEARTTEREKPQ
Description: biochemical. Further details: Sirtuin-TK assay, percent inhibition of human SIRT1 or SIRT2 at 5 and 50 uM. The procedure:
as §1

A further assay relates to HT29. Briefly: cells. Further details: species or system NCI-60 human tumour cell lines; NCI-60 one-dose screen at 10 uM, percent growth inhibition versus untreated control cells. The following applies: Homo sapiens, HT-29, growth inhibition, one dose.
The subject of a further assay is TK-10. Briefly: cells. The settings on record: Homo sapiens, TK-10, growth inhibition, one dose. The arrangement: species or system NCI-60 human tumour cell lines; NCI-60 one-dose screen at 10 uM, percent growth inhibition versus untreated control cells.
The next assay deals with RXF 393. Briefly: cells. Further details: species or system NCI-60 human tumour cell lines; NCI-60 one-dose screen at 10 uM, percent growth inhibition versus untreated control cells. The following applies: Homo sapiens, RXF 393, growth inhibition, one dose.
A further assay concerns SF-295. Description: cells. The settings on record: Homo sapiens, SF-295, growth inhibition, one dose. The arrangement: species or system NCI-60 human tumour cell lines; NCI-60 one-dose screen at 10 uM, percent growth inhibition versus untreated control cells.
For the next assay, the system named is NCI-H23. Briefly: cells. The arrangement: species or system NCI-60 human tumour cell lines; NCI-60 one-dose screen at 10 uM, percent growth inhibition versus untreated control cells. The following applies: Homo sapiens, NCI-H23, growth inhibition, one dose.
A further assay concerns COLO 205. Briefly: cells. The arrangement: species or system NCI-60 human tumour cell lines; NCI-60 one-dose screen at 10 uM, percent growth inhibition versus untreated control cells. The following applies: Homo sapiens, COLO 205, growth inhibition, one dose.
The next assay deals with SK-OV-3. Briefly: cells. The arrangement: species or system NCI-60 human tumour cell lines; NCI-60 one-dose screen at 10 uM, percent growth inhibition versus untreated control cells. The following applies: Homo sapiens, SK-OV-3, growth inhibition, one dose.
The subject of the next assay is MDA-MB-468. Description: cells. The settings on record: Homo sapiens, MDA-MB-468, growth inhibition, one dose. The arrangement: species or system NCI-60 human tumour cell lines; NCI-60 one-dose screen at 10 uM, percent growth inhibition versus untreated control cells.
[1] abbreviates: read-out: Growth% inhibition / 5b.
Where [2] appears, read: read-out: Growth% inhibition / 5e.

SMILES strings stand for the structures. Read-outs that look alike come from different tables or passages of the source.

As for `CN(C)c1ccc(C=NNC(=O)/C=C/C=C/c2ccc3c(c2)OCO3)cc1` (mixture of isomers) [5d, (2E,4E)-5-(Benzo[d][1,3]dioxol-5-yl)-N′-((E/Z)-4-(dimethylamino)-benzylidene)penta-2,4-dienehydrazide], the inhibition at 5 µM came to 11 ± 2% at SIRT1 and 18 ± 2% on SIRT2.
At SIRT1, `O=C(/C=C/C=C/c1ccc2c(c1)OCO2)NN=Cc1ccc(O)cc1` [5a, (2E,4E)-5-(Benzo[d][1,3]dioxol-5-yl)-N′-((E,Z)-4-hydroxybenzylidene)penta-2,4-dienehydrazide] yielded an inhibition at 5 µM of 13 ± 3% and an inhibition at 50 µM of 42 ± 3%. Also, the inhibition at 5 µM against SIRT2 came out at 19 ± 3%.
Turning to `O=C(/C=C/C=C/c1ccc2c(c1)OCO2)N/N=C/c1ccc(O)cc1O` [5b, (2E,4E)-5-(Benzo[d][1,3]dioxol-5-yl)-N′-((E)-2,4-dihydroxybenzylidene)penta-2,4-dienehydrazide], the inhibition at 5 µM against SIRT1 is 18 ± 3%; on SIRT2 it was 26 ± 3%. The inhibition at 50 µM at SIRT2 was determined as 78 ± 3%. In addition, the inhibition at 10 µM in the assay with HT29 (setting [1]) came out at 51.9%; in the assay on TK-10 (setting [1]), 69%; in the assay on RXF 393 (setting [1]), 42.1%; in the assay with SF-295 (setting [1]), 86.2%; in the assay on NCI-H23 (setting [1]), 70%; in the assay on COLO 205 (setting [1]) it was 86%. For the same compound, the inhibition at 10 µM in the assay with SK-OV-3 (setting [1]) was found to be 73%.
On to `CCN(CC)c1ccc(/C=N/NC(=O)/C=C/C=C/c2ccc3c(c2)OCO3)c(O)c1` [5e, (2E,4E)-5-(Benzo[d][1,3]dioxol-5-yl)-N′-((E)-4-(diethylamino)-2-hydroxybenzylidene)penta-2,4-dienehydrazide], for which the results for the inhibition at 5 µM against SIRT1 and against SIRT2 were 20 ± 5% and 24 ± 3%, respectively. The inhibition at 50 µM was 44 ± 2% against SIRT1 and 74 ± 2% on SIRT2. Also, the inhibition at 10 µM in the assay with MDA-MB-468 (setting [2]) stood at 86.6%; with HT29 (setting [2]), 32.2%; with TK-10 (setting [2]) it was 62.2%; with RXF 393 (setting [2]), 27.4%; in the assay on SF-295 (setting [2]), 58.3%; in the assay with NCI-H23 (setting [2]), 50.3%. The inhibition at 10 µM in the assay with COLO 205 (setting [2]) came to 60.1%; in the assay with SK-OV-3 (setting [2]) it was 60.5%.
On SIRT1, `C/C(=N\NC(=O)/C=C/C=C/c1ccc2c(c1)OCO2)c1ccc(Br)cc1` [5h, (2E,4E)-5-(Benzo[d][1,3]dioxol-5-yl)-N′-((E)-1-(4-bromophenyl)ethylidene)penta-2,4-dienehydrazide] gave an inhibition at 5 µM of 16 ± 5% and an inhibition at 50 µM of 44 ± 3%. At SIRT2, this compound had an inhibition at 5 µM of 22 ± 5% and an inhibition at 50 µM of 75 ± 3%. Further, in the assay with MDA-MB-468 (read-out: Growth% inhibition / 5h), the inhibition at 10 µM is 29.3%.
